Read-outs that look alike come from different tables or passages of the source.
Tests used:
Test in all cases: Glasshouse assay for herbicidal activity (pre- and post-emergence), percentage phytotoxicity
Assay type in all cases: in vivo
Avena fatua (AVEFA) = conditions: Avena fatua, 250 g/ha, visual assessment (100%=total damage, 0%=no damage)
Outline: (§1)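 Sow seed in standard soil in pots; apply test herbicide after 1 day (PRE) or about 12 days (POST). Grow on in the glasshouse, watering twice daily, cool-season species at 20/16 °C and warm-season at 24/18 °C. Score visible damage (0–100%) at 20 or 15 DAA respectively.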

Lolium perenne (LOLPE) = conditions: Lolium perenne, 250 g/ha, visual assessment (100%=total damage, 0%=no damage)
Outline: as §1

[1] = tested on: Alopecurus myosuroides (ALOMY); conditions: Alopecurus myosuroides, 250 g/ha, visual assessment (100%=total damage, 0%=no damage)
Outline: as §1

[2] = tested on: Echinochloa crus-galli (ECHCG); conditions: Echinochloa crus-galli, 250 g/ha, visual assessment (100%=total damage, 0%=no damage)
Outline: as §1

[3] = post-emergence, 360 h, post-emergence, 15 DAA, read-out: Post-emergence herbicidal activity (percentage phytotoxicity) AVEFA POST
[4] = pre-emergence, 480 h, pre-emergence, 20 DAA, read-out: Pre-emergence herbicidal activity (percentage phytotoxicity) AVEFA PRE
[5] = post-emergence, 360 h, post-emergence, 15 DAA, read-out: Post-emergence herbicidal activity (percentage phytotoxicity) LOLPE POST
[6] = pre-emergence, 480 h, pre-emergence, 20 DAA, read-out: Pre-emergence herbicidal activity (percentage phytotoxicity) LOLPE PRE
[7] = post-emergence, 360 h, post-emergence, 15 DAA, read-out: Post-emergence herbicidal activity (percentage phytotoxicity) ALOMY POST
[8] = pre-emergence, 480 h, pre-emergence, 20 DAA, read-out: Pre-emergence herbicidal activity (percentage phytotoxicity) ALOMY PRE
[9] = post-emergence, 360 h, post-emergence, 15 DAA, read-out: Post-emergence herbicidal activity (percentage phytotoxicity) ECHCG POST
[10] = pre-emergence, 480 h, pre-emergence, 20 DAA, read-out: Pre-emergence herbicidal activity (percentage phytotoxicity) ECHCG PRE

| Compound | pest or weed control at 250 g/ha (Avena fatua (AVEFA); [3]) [%] | pest or weed control at 250 g/ha (Avena fatua (AVEFA); [4]) [%] | pest or weed control at 250 g/ha (Lolium perenne (LOLPE); [5]) [%] | pest or weed control at 250 g/ha (Lolium perenne (LOLPE); [6]) [%] | pest or weed control at 250 g/ha [1, 7] [%] | pest or weed control at 250 g/ha [1, 8] [%] | pest or weed control at 250 g/ha [2, 9] [%] | pest or weed control at 250 g/ha [2, 10] [%] |
| --- | --- | --- | --- | --- | --- | --- | --- | --- |
| Cc1cc(-c2ncc(F)cc2F)cc(C)c1C1C(=O)CC(CC(=O)NCc2cccc(Cl)c2)C1=O (centres unmarked) [Compound B33] | 100 | 100 | 90 | 100 | 90 | 100 | 100 | 100 |
| C#Cc1ccc(CNC(=O)CC2CC(=O)C(c3c(C)cc(C)cc3C)C2=O)cc1 (centres unmarked) [Compound B34] | 90 | 80 | 80 | 90 | 60 | 70 | 100 | 100 |
| CC#CC(C)(C)NC(=O)CC1CC(=O)C(c2c(C)cc(C)cc2C)C1=O (centres unmarked) [Compound B35] | 70 | 0 | 70 | 80 | 80 | 90 | 70 | 80 |
| Cc1cc(C)c(C2C(=O)CC(CC(=O)NCC#CCCl)C2=O)c(C)c1 (centres unmarked) [Compound B36] | 40 | 0 | 50 | 80 | 30 | 50 | 20 | 0 |
| C#CCCNC(=O)CC1CC(=O)C(c2c(C)cc(C)cc2C)C1=O (centres unmarked) [Compound B37] | 100 | 90 | 80 | 100 | 70 | 70 | 90 | 90 |
| C#CCN(C)C(=O)CC1CC(=O)C(c2c(C)cc(C)cc2C)C1=O (centres unmarked) [Compound B38] | 90 | 60 | 90 | 100 | 70 | 70 | 90 | 100 |
| Cc1cc(C)c(C2C(=O)CC(CC(=O)NC(C)(C)CCl)C2=O)c(C)c1 (centres unmarked) [Compound B39] | 70 | 30 | 60 | 60 | 80 | 30 | 50 | 0 |
| Cc1cc(C)c(C2C(=O)CC(CC(=O)NCC3CC3(Cl)Cl)C2=O)c(C)c1 (centres unmarked) [Compound B40] | 90 | 70 | 80 | 90 | 80 | 90 | 90 | 90 |
| Cc1cc(C)c(C2C(=O)CC(CC(=O)NC3(C)CCCC3)C2=O)c(C)c1 (centres unmarked) [Compound B41] | 70 | 30 | 60 | 70 | 80 | 70 | 60 | 60 |
| Cc1cc(C)c(C2C(=O)CC(CC(=O)NC3=NOC(C)(C)C3)C2=O)c(C)c1 (centres unmarked) [Compound B42] | 60 | 0 | 40 | 0 | 60 | 0 | 0 | 0 |

Reference: US10206394B2, “Herbicidal compounds” (Syngenta Participations AG, priority 2014, dated 2019)
